The values that follow come from US9155778B2, “Tripeptides that down regulate the activity of plasma membrane transporters including sodium-D-glucose cotransporter SgIt1” (JULIUS-MAXMILLIANS-UNIVERSITAT WURZBURG, priority 2005, dated 2015).

Assay [1] has as its target T1, hPEPT1 (Homo sapiens, UniProt P46059).
T1 construct: expressed in transfected cells; host or cells: Xenopus laevis oocytes (30 ng cRNA per oocyte)
T1 sequence (P46059 1-708): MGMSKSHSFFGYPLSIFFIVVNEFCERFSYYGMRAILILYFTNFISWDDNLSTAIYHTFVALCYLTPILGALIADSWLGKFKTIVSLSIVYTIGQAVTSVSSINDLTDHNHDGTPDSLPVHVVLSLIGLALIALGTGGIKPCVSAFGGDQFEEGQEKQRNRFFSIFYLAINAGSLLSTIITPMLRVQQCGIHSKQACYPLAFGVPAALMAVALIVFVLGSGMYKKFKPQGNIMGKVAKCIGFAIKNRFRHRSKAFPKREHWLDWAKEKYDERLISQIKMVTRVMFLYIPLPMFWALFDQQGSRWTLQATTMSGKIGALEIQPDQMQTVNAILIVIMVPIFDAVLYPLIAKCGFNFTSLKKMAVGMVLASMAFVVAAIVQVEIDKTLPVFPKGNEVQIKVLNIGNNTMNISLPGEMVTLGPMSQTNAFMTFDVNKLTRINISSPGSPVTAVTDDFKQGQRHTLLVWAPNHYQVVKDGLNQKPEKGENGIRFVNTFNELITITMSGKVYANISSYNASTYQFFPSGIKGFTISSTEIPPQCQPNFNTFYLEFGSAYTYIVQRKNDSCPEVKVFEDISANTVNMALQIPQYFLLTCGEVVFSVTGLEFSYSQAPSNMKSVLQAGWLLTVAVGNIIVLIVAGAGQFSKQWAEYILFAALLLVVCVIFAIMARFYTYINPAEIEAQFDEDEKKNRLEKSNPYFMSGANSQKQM
As to the kind of experiment: Electrogenic peptide transport by hPEPT1 in oocytes, two-electrode voltage clamp. It is filed as cell-based. The settings on record: pH 6.5. The protocol:
(§1) The oocytes were incubated for three days at 16° C. in ORi buffer (in mM: 5 HEPES-Tris, pH 7.4, 100 NaCl, 3 KCl, 2 CaCl2, and 1 MgCl2). […] The oocytes were superfused with Ori buffer titrated to pH 6.5, the membrane potential of the oocytes was clamped to −40 mV, and inward current induced by superfusion with Ori buffer (pH 6.5) containing 5 mM of a control dipeptide or 5 mM of the tested tripeptide was measured. • (D) Expression and Purification of hRS1

The target in assay [2] is T2, hSGLT1 (Homo sapiens, UniProt P13866).
T2 construct: expressed in transfected cells; host or cells: Xenopus laevis oocytes (cRNA injection)
T2 sequence (P13866 1-664): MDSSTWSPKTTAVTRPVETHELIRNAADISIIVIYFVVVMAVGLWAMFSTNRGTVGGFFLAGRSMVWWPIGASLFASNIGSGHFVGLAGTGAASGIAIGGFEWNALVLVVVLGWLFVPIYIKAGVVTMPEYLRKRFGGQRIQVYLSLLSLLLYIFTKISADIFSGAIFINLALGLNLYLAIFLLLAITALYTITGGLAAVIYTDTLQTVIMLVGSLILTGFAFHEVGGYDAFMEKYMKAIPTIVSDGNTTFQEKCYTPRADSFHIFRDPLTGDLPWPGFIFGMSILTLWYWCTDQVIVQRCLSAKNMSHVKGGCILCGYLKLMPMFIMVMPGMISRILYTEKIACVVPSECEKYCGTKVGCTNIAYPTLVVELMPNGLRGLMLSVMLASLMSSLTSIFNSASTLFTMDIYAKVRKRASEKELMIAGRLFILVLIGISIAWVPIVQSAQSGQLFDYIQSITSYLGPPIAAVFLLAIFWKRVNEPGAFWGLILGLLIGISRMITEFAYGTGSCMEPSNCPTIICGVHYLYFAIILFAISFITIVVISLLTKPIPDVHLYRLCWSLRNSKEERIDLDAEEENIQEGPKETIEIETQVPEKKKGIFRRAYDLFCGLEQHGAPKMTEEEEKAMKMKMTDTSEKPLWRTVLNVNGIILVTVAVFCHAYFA
As to the kind of experiment: [14C]AMG uptake in oocytes after incubation with tripeptide in the medium. The class given is cell-based. The settings on record: pH 6.5. The protocol: In a different experimental setup, oocytes were injected with SGLT1 cRNA (2.5 ng per oocyte) or with hSGLT1 cRNA (2.5 ng per oocyte) plus hPEPT1 cRNA (10 ng per oocyte) and the oocytes were incubated 3 days for expression. Thereafter the oocytes were incubated 30 min with Ori buffer adjusted to pH 6.5 or with Ori buffer adjusted to pH 6.5 containing 3 mM of the tested tripeptide. Thereafter oocytes were washed with Ori buffer (pH 7.4) and uptake of [^14C]AMG was measured. • (F) Measurements of [^14C]AMG Uptake
Uptake measurements were performed as described (Veyhl (2003), J. Membrane Biol., 196, 71-81). Oocytes were incubated for 15 min at room temperature in ORi buffer containing 50 μM [^14C]AMG without or with 100 μM of the SGLT1 inhibitor phlorizin. The uptake was blocked and oocytes were washed with ice cold Ori buffer containing 100 μM phlorizin. Radioactivity in the oocytes was measured by liquid scintillation counting.
Thereafter the oocytes were washed with neutral Ori buffer and the hSGLT1 expressed uptake of 50 μM [^14C]AMG was measured (FIG. 7). […] Incubation of oocytes expressing hSGLT1 plus hPEPT1 with PCQ had no effect on the expressed uptake of [^14C]AMG.

The target in assay [3] is T3, rbSGLT1 (Oryctolagus cuniculus, UniProt P11170).
T3 construct: expressed in transfected cells; host or cells: Xenopus laevis oocytes (cRNA injection)
T3 sequence (P11170 1-662): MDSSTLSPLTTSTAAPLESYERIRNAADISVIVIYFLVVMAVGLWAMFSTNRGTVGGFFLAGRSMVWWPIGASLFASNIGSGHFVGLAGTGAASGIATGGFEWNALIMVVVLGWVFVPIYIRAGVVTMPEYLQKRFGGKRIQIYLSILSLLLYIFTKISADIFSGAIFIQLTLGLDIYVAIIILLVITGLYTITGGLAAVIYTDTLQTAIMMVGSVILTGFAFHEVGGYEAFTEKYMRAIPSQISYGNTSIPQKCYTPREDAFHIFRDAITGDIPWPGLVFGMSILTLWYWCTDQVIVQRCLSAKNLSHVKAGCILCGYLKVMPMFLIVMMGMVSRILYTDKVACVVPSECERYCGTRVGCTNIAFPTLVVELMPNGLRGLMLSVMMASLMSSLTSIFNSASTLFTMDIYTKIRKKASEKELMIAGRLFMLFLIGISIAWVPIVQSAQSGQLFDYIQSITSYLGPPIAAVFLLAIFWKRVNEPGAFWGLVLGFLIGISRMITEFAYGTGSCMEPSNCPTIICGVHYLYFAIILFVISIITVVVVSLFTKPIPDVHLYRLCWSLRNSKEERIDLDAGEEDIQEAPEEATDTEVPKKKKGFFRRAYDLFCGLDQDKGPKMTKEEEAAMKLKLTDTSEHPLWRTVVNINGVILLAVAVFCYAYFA
In words: rbSGLT1 expressed [14C]AMG uptake in oocytes after peptide injection. The class given is cell-based, rabbit. The settings on record: 50 nl containing 3 mM of each peptide, 30 min, 50 μM [14C]AMG; compared with hSGLT1. The protocol: as §1
To develop drugs on the basis of the identified peptides animal models are required.

The conditions of assay [4]: drinking water pH 6.0 with 10 mM QCP, 2 months, standard chow or sugar low diet. An excerpt:
The body weight development with and without peptide treatment is compared over 2 months. […] In corresponding experiments, rabbits are to be employed.

Assay [5] has as its system sodium dependent amino acid transporters. The settings on record: 60 min, pH 6.5, 3 mM QCP; 10 mM amino acids. The protocol: Walls of small intestinal mucosa from mice are inserted into an Ussing chamber and transepitehial currents are measured that are induced by addition of 10 mM of various amino acids to the mucosal side.
The target in assay [6] is SGLT1 (Mus musculus, UniProt Q8C3K6). The settings on record: 60 min pre-incubation, pH 6.5, 3 mM QCP, 0.1 mM D-glucose. The protocol:
Walls of small intestinal mucosa from mice are inserted into an Ussing chamber and the SGLT1 mediated transepitehila currents are measured that are induced by addition of 0.1 mM D-glucose to the mucosal side. […] After washing glucose-induced transepithelial currents are measured.

The target of assay [7] is T2, hSGLT1. In words: hSGLT1 expressed [14C]AMG uptake in Xenopus oocytes after injection of hRS1 protein or peptides. It is filed as cell-based.
Assay [8] concerns the target hOCT2 (Homo sapiens, UniProt O15244). The settings on record: intracellular AMG 0.1 mM, <0.01 mM or 10 mM. The protocol:
Corresponding measurements were performed in the presence of intracellular AMG concentrations of 0.1 mM, <0.01 mM or 10 mM.

Sequence of SGLT1 (Q8C3K6 whole entry): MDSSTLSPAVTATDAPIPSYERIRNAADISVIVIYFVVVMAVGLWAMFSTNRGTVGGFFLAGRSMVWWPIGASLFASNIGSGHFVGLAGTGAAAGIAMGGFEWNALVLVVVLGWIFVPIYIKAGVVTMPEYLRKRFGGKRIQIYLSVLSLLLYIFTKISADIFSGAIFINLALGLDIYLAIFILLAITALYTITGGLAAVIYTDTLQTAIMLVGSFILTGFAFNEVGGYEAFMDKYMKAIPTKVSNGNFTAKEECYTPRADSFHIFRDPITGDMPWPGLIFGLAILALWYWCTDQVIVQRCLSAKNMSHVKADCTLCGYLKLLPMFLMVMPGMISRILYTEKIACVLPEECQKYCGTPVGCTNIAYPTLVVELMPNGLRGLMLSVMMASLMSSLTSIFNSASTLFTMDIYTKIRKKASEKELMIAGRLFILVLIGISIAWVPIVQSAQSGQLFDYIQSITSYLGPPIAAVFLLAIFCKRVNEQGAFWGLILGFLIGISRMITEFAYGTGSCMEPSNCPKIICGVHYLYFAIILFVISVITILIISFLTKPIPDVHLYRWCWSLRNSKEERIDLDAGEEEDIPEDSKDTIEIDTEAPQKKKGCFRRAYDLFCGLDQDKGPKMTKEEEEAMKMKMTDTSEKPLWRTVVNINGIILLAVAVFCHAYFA
Sequence of hOCT2 (O15244 whole entry): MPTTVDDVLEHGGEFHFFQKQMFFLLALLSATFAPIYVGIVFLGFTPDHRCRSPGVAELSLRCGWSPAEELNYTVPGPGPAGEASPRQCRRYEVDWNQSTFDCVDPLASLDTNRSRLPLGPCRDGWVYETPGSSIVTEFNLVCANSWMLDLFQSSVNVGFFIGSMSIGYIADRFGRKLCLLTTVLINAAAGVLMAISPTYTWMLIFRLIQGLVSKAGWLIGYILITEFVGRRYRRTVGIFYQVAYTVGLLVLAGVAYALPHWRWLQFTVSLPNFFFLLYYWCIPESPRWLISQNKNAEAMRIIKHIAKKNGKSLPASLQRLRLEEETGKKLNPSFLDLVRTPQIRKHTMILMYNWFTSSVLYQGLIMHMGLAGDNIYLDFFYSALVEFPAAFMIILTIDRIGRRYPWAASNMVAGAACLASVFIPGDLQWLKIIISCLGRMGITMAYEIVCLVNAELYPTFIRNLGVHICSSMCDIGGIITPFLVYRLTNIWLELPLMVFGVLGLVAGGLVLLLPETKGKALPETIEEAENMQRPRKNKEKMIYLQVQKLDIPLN

In the case of Glutamine-Cysteine-Proline [QCP], in assay [1], the “inward current in control oocytes not injected with hPEP1-cRNA” value was “no inward currents” and the “inward current induced in oocytes expressing hPEPT1” value is “significant inward currents”. Also, in assay [2], the “effect on AMG uptake in oocytes in which hSGLT1 but not hPEPT1 was expressed” value is reported as “no effect” and the “inhibition of [14C]AMG uptake in oocytes expressing hSGLT1 plus hPEPT1” value is given as “about 50%”. In addition, the “effect on glucose uptake expressed by rbSGLT1” value in assay [3] is on record as “same effect”. For the same substance, in assay [4], the “body weight after feeding” value is given as “body weight is reduced”. Also, the “transepithelial flux of amino acids” value in assay [5] was “inhibits transepithelial flux of amino acids”. Moreover, in assay [6], the transepithelial glucose flux result is “inhibits transepithelial glucose flux”. In assay [7], the “inhibition of AMG uptake in the absence of BTXB” value is on record as “inhibited”, the “inhibition of AMG uptake in the presence of BTXB” value is “no significant inhibition”, the “inhibition of glucose uptake expressed by hSGLT1” value is “about 50%” and the “inhibition of hSGLT1 expressed AMG uptake” value is recorded as 35-40%. In assay [7], the “inhibition of hSGLT1 expressed AMG uptake after stimulation of protein kinase C” value was “not changed”, the “inhibition of hSGLT1 expressed AMG uptake with coexpressed dominant negative mutant of dynamin I” value is reported as “not changed”, the “inhibition of hSGLT1 expressed uptake of AMG after 3 h” value was found to be 60% and the “inhibition of hSGLT1 expressed uptake of AMG after 5 h” value is given as “about 40%”. For the same substance, in assay [7], the “inhibition of hSGLT1 expressed uptake of AMG after 10 h” value is on record as 20-30%, the “inhibition of hSGLT1 in dependence of intracellular monosaccharide concentration” value is on record as “inhibits hSGLT1 at low or high concentrations of intracellular monosaccharides”, the “inhibitory effect on expression of hSGLT1 when the exocytotic pathway is blocked” value is reported as “could be prevented” and the “intracellular concentration of QCP giving 35-40% inhibition of hSGLT1 expressed glucose uptake” value is “below 5 nM”. In addition, the “hOCT2 expressed [14C]TEA uptake after injection” value in assay [8] was “appears not to be inhibited”.
